Measurements taken from patent US20180153995A1, “USE OF ANTIMICROBIAL POLYMERS FOR RE-SENSITIZATION OF MICROORGANISMS UPON EMERGENCE OF RESISTANCE TO ANTI-MICROBIAL AGENTS” (Technion Research & Development Foundation Limited, priority 2008, published 2018).
In brackets after ≈: the same amount, converted by molar mass. Each block holds one compound with its values, some of them ahead of it. Numbered stars: 1 amine (or outer) side, 2 acyl side, 3 side chain; on linkers, the order of the positions; unused ones are H or OH. Square brackets hold non-standard residues; d marks the D form. Peptide text beside a SMILES is read from it. * marks the point of attachment. NH(CH2)9CO = O=C(CCCCCCCCCN[*:1])[*:2]; Lauroyl = CCCCCCCCCCCC(=O)*

Experiments:
MRSA 15903 = assay: microbe, parasite or virus in culture; format: cell-based, Staphylococcus aureus
Method: (§1) The fractionary inhibitory (FIC) concentration index for combinations of two antimicrobial agents was calculated as follows: FIC index=FICA+FICB=A/MICA+B/MICB where A and B are the MIC values of agent A and agent B in the combination, MICA and MICB are the MICs of agent A and agent B alone, and FICA and FICB are the FICs of agent A and agent B.
(§2) The FIC indexes were interpreted as follows: less than 0.5 indicates a clear re-sensitizing effect; from 0.5 to 4 indicates a marginal or null re-sensitizing effect; and over 4 indicates antagonism.
Experimental data for FIG. 4 were obtained as follows.

S. aureus ATCC 29213 = assay: microbe, parasite or virus in culture
Method: In parallel, MIC evolution was compared concomitantly for each new sub-culture, using bacteria harvested from control wells (wells cultured without antimicrobial agent from the previous sub-culture). The relative MIC was calculated for each experiment from the ratio of MIC obtained for subculture “n” to that obtained for first-time exposure.
The relative MIC was determined as the normalized ratio of the MIC obtained for a given subculture to the MIC of the control.
MICs were determined by microdilution susceptibility testing in 96-well plates using inocula of 10^5 bacteria per ml. Cell populations were evaluated by optical density measurements at 600 nm and were calibrated against a set of standards.
In parallel, MIC evolution was compared concomitantly for each new generation, using bacteria harvested from control wells (wells cultured without antimicrobial agent from the previous generation). The relative MIC was calculated for each experiment from the ratio of MIC obtained for subculture “n” to that obtained for first-time exposure. […] MICs were determined by microdilution susceptibility testing in 96-well plates. Cell populations were evaluated by optical density measurements at 600 nm and were calibrated against a set of standards.

MRSA 15852 = format: cell-based, Staphylococcus aureus; settings: 15852
Method: as §1, §2

ATCC 25923 = assay: microbe, parasite or virus in culture; format: cell-based, Staphylococcus aureus; settings: ATCC 25923
Method: (§3) MICs were determined by microdilution susceptibility testing in 96-well plates (by Nunc) using inocula of 10^5 bacteria per ml. Cell populations were evaluated by optical density measurements at 620 nm and were calibrated against a set of standards. Hundred (100) μl of a bacterial suspension were added to 100 μl of culture medium (control) or to 100 μl of culture medium containing various polymer concentrations in 2-fold serial dilutions. Inhibition of proliferation was determined by optical density measurements at 620 nm after an incubation period of 24 hours at 37° C.

MRSA 15918 = assay: microbe, parasite or virus in culture; format: cell-based, Staphylococcus aureus; settings: 15918
Method: as §3, §1, §2

ATCC 29213 = assay: microbe, parasite or virus in culture; format: cell-based, Staphylococcus aureus; settings: ATCC 29213
Method: as §3, §1, §2

E. coli 16327 = assay: microbe, parasite or virus in culture; settings: 16327
Method: as §3
100 μl of a bacterial suspension were added to 100 μl of culture medium (control) or to 100 μl of culture medium containing various antibiotic and C14(9-ene)KKNC12KNH2 (SEQ ID NO: 5) concentrations in 2-fold serial dilutions. Inhibition of proliferation was determined by optical density measurements at 620 nm after an incubation period of 24 hours at 37° C.

[1] = tested on: E. coli K-12 resistant wild type; format: cell-based, Escherichia coli; settings: E. coli K-12 multi-resistant wild type
Escherichia coli strains = format: cell-based; settings: isogenic pair of E. coli K-12 strains
Method: as §3

E. coli CI14213 = format: cell-based, Escherichia coli
Method: as §3

[2] = tested on: E. coli K-12 efflux knockout mutant; format: cell-based, Escherichia coli; settings: E. coli K-12 strain with decreased levels of efflux pumps
Method: as §3

[3] = tested on: various strains of S. aureus, E. coli P. aeruginosa, P. mirabilis and S. maltophila; format: cell-based; settings: strain not stated
Method: Antibacterial activity was determined using various strains of S. aureus, E. coli P. aeruginosa, P. mirabilis and S. maltophila, cultured in LB medium (10 grams/liter trypton, 5 grams/liter yeast extract, 5 grams/liter NaCl, pH 7.4). Bacterial strains include susceptible strains of Staphylococcus aureus, Pseudomonas aeruginosa, Bacillus cereus and Escherichia coli (ATCC, American Type Culture Collection), as well as antibiotic-resistant strains such as oxacillin-resistant Staphylococcus aureus (ORSA) and methicillin-resistant Staphylococcus aureus (MRSA).
as §3

Compound: CCCCCCC=CCCCC(=O)N[C@@H](CCCCN)C(=O)N[C@@H](CCCCN)C(=O)NCCCCCCCCCCCC(=O)N[C@@H](CCCCN)C(N)=O [C12(5-ene)KKNC12KNH2]
MIC (MRSA 15903; 15903): 3.1 to 6.2 µM
MIC of polymer (MRSA 15903; 15903): 6.2 µM
fractionary inhibitory concentration (FIC) index (MRSA 15903; MRSA 15903, oxacillin + polymer at optimal concentration 2.1 μM): 0.35
optimal re-sensitization polymer concentration (MRSA 15903; MRSA 15903, with oxacillin): 2.1 µM
mean polymer's MIC (S. aureus ATCC 29213; ATCC 29213): 4.9 µg/mL
effect on relative MIC of now-resistant strain (S. aureus ATCC 29213; now-resistant ATCC 29213, polymer alone or oxacillin + sub-MIC polymer): decreased the relative MIC
MIC (MRSA 15852): 6.2 µM
MIC (ATCC 25923): 3.1 µM (≈ 2.42 µg/mL)
MIC (MRSA 15918): 6.2 µM
MIC (ATCC 29213): 6.2 µM

MIC of polymer (MRSA 15903; 15903): 6.25 µM
MIC of polymer (E. coli 16327): 3.1 µM
Compound: CCCCCCCCCCCC(=O)N[C@@H](CCCCN)C(=O)N[C@@H](CCCCN)C(=O)NCCCCCCCCCC(=O)N[C@@H](CCCCN)C(=O)N[C@@H](CCCCN)C(=O)NCCCCCCCCCC(=O)N[C@@H](CCCCN)C(=O)N[C@@H](CCCCN)C(=O)NCCCCCCCCCC(=O)N[C@@H](CCCCN)C(N)=O [C12K(KNC10K)3NH2] (Lauroyl-KK[NH(CH2)9CO]KK[NH(CH2)9CO]KK[NH(CH2)9CO]K-NH2)

Compound: CCCCCCCCCCCC(=O)N[C@@H](CCCCN)C(=O)NCCCCCCCC(=O)N[C@@H](CCCCN)C(=O)NCCCCCCCC(=O)N[C@@H](CCCCN)C(=O)NCCCCCCCC(=O)N[C@@H](CCCCN)C(=O)NCCCCCCCC(=O)N[C@@H](CCCCN)C(=O)NCCCCCCCC(=O)N[C@@H](CCCCN)C(N)=O [C12K(NC8K)5NH2]
effect of polymer on antibiotics potency [1]: enhanced antibiotics potency
MIC of polymer (Escherichia coli strains): 3.125 µg/mL
MIC of polymer (E. coli CI14213; CI14213): 6.2 µM
re-sensitizing effect of polymer on oxacillin (E. coli CI14213; E. coli CI14213, polymer well below MIC (up to ⅛ MIC), 24 hours): endowed potency to oxacillin
effect of polymer on antibiotic MICs [2]: not altered significantly

Compound: CCCCC=CCCCCCCCC(=O)N[C@@H](CCCCN)C(=O)N[C@@H](CCCCN)C(=O)NCCCCCCCCCCCC(=O)N[C@@H](CCCCN)C(N)=O [C14(9-ene)KKNC12KNH2]
MIC of polymer per se [3]: 6.2 µM

Compound: CCCCCCC=CCCCCCCCC(=O)N[C@@H](CCCCN)C(=O)N[C@@H](CCCCN)C(=O)NCCCCCCCCCCCC(=O)N[C@@H](CCCCN)C(N)=O [C16(9-ene)KKNC12KNH2]
MIC of polymer per se [3]: 6.2 µM
